We go through two molecules from article PMC5458547, “Discovery of first-in-class reversible dual small molecule inhibitors against G9a and DNMTs in hematological malignancies” (Nature Communications, 2017).

One data set relates to LAL-CUN-13. Put plainly: Cell proliferation assay (MTS). The class given is cell-based. As to conditions: Homo sapiens; ALL, 48 h.
The test system of the next data set is RIVA. Put plainly: Cell proliferation assay (MTS). In kind it is cell-based. As to conditions: Homo sapiens; ABC-DLBCL, 48 h.
Another data set relates to HCC95. Put plainly: Cell proliferation assay (MTS). As to conditions: Homo sapiens, SCLC. The class given is cell-based.
For the next data set, the system named is CEMO-1 cells. Kind of data set: ALL CEMO-1 xenograft survival. In kind it is in vivo, mice. The following applies: 1 mg/kg i.v. daily for 28 days. As to the method:
Statistical results were calculated using the statistical software medcalc.
270 nM for MV4-11 cell line and 200 and 400 nM for OCI-Ly10). Extracellular HMGB1 from 48 h cell culture supernatants was quantified by means of the HMGB1 ELISA Kit II (Shino Test Corp.), following the manufacturer's instructions.
All animal studies had previous approval from the Animal Care and Ethics Committee of the University of Navarra, whereas experiments that used patient samples were approved by the Human Research Ethics Committees of University of Navarra.
The human ALL CEMO-1 xenograft mice model was generated by intravenously (i.v.) injection of 10x10^6 cells diluted in 100 µL of saline solution in the tail vein of a 6-8-week-old female BALB/cA- Rag2-/-γc-/- mice (n=12). Three days after injection, antitumor treatment was started intravenously in 6 mice. 1 mg/kg […]
The control group (n=6) received only
The mice weight was controlled and stable during the treatment.
Statistical results were calculated using the statistical software medcalc. […]
consecutive days. […] Statistical results were calculated using the statistical software medcalc. […]
The control group (n=6) received only saline solution. […] Statistical results were calculated using the statistical software medcalc. […]
washout period, hematological and liver parameters were measured. […]
washout period hematological and liver parameters were measured. […]

The next data set has as its system SU-DHL-7. Kind of data set: Cell proliferation assay (MTS). In kind it is cell-based. As to conditions: Homo sapiens; GC-DLBCL, 48 h.
Another data set relates to OCI-Ly7. Kind of data set: Cell proliferation assay (MTS). As to conditions: Homo sapiens, GC-DLBCL, 48 h. In kind it is cell-based.
For another data set, the system named is PFEIFFER
Kind of data set: Cell proliferation assay (MTS). The class given is cell-based. As to conditions: Homo sapiens, GC-DLBCL, 48 h.

Data set [1] is described as follows: Plasma protein binding (equilibrium dialysis). The following applies: pH 7.4. In kind it is in vitro ADME. How it is done:
This study was conducted by Equilibrium Dialysis at Wuxi (http://www.wuxi.com/). HT-Dialysis plate (Model HTD 96 b, Cat# 1006) and the dialysis membrane (molecular weight cut off 12-14 kDa, Cat# 1101) were purchased from HT Dialysis LLC (Gales Ferry, CT). Human plasma and CD-1 mouse plasma from Bioreclamation were thawed prior to experiment and the pH was adjusted at 7.4. Concentrations of test compounds in starting solution (before dialysis), plasma side of the membrane and buffer side of the membrane were quantified by LC-MS/MS (Shimadzu LC 20-AD - API 4000) methodologies, using peak area ratio of analyte/internal standard. The fraction of unbound, bound and recovery were calculated.
Results are the average of three replicates. […]
(§1) The pH was adjusted to 7.40±0.05 using either 1 M sodium hydroxide or 1 M hydrochloric acid. Test compounds were diluted to 0.2 mM in DMSO and further diluted prior to testing to 10 µM in PBS, pH 7.4 (final 5% DMSO). The assay was performed using a 96-well multiscreen-IP PAMPA plate (Millipore, Cat. # MAIPN4510), whose PVDF membrane was pre-coated with 5 µL of 1% lecithin/dodecane mixture. 150 µL of PBS solution containing the test compounds were added to the donor chamber. Blank PBS (300 µL) was also added to the PTFE acceptor plate, and the donor and acceptor plates were assembled and incubated for 4 h at room temperature with shaking at 150 rpm. […]

The next data set has as its system DB. Put plainly: Cell proliferation assay (MTS). In kind it is cell-based. As to conditions: Homo sapiens, GC-DLBCL, 48 h.
The target in a further data set is T1, LSD1 (Homo sapiens, UniProt O60341).
T1 construct: purchased DiscoverX KINOMEscan (kinases); BPS Bioscience (epigenetic targets)
Kind of data set: Epigenetics selectivity panel (BPS Bioscience). In kind it is biochemical.

A further data set in a line: Kinetic solubility. The class given is physicochemical. The following applies: aqueous buffer, kinetic from dmso stock, pH 7.4, 50 mM phosphate buffer. How it is done: This study was conducted at Wuxi (http://www.wuxi.com/) at pH 7.4 (50 mM phosphate buffer). […]
as §1

Another data set concerns the target T2, hERG potassium channels (Homo sapiens, UniProt Q12809).
T2 construct: purchased Life technologies PV5365
Kind of data set: hERG blockade assay (Predictor fluorescence polarization). As to conditions: read-out: hERG binding IC50.

Values after ≈ are worked out from the molar mass of the structure shown.

T2 sequence (Q12809 whole entry): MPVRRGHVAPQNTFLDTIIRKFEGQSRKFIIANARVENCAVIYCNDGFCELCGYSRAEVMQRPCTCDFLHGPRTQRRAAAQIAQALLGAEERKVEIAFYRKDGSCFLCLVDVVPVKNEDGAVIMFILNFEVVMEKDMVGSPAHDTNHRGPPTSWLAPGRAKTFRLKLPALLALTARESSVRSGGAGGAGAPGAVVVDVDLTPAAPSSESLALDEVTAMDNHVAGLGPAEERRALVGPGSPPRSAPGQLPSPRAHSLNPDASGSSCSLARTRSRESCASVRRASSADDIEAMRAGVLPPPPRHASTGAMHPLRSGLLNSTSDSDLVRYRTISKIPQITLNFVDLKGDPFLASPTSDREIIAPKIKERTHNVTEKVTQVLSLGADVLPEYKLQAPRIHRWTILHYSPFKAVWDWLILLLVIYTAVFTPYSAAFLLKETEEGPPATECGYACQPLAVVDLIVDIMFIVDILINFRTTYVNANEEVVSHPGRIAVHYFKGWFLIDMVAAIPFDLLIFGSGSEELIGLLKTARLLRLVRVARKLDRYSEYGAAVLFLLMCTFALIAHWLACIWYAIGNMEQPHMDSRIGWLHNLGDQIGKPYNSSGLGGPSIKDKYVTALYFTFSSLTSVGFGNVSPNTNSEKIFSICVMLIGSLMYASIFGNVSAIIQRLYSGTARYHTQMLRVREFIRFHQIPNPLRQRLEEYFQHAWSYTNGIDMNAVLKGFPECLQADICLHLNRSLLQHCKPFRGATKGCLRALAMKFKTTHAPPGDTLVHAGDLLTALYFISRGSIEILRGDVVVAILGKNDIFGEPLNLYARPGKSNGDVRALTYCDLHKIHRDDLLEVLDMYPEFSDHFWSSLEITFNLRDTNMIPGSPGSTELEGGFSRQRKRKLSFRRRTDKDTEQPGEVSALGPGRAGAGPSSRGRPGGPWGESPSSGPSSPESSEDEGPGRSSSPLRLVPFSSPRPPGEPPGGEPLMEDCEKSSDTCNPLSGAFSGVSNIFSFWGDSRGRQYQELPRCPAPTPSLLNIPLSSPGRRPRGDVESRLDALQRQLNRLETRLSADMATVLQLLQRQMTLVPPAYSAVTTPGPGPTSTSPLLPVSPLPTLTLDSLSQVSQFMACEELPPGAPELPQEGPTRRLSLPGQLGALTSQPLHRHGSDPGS

Turning to `COc1cc2c(NC3CCN(C)CC3)cc(-c3ccc(C)o3)nc2cc1OCCCN1CCCC1` [CM-272, 6-methoxy-2-(5-methyl-2-furyl)-N-(1-methyl-4-piperidyl)-7-(3-pyrrolidin-1-ylpropoxy)quinolin-4-amine], the GI50 with LAL-CUN-13 came to 1400 nM; in the data set with RIVA, 1570 nM; with HCC95 it was 751 nM; in the data set with SU-DHL-7, 636 nM; in the data set on OCI-Ly7, 534 nM; in the data set with PFEIFFER, 1220 nM. For the same molecule, the GI50 in the data set with DB is 1310 nM. In the data set with CEMO-1 cells, the survival result was “not able to prolong survival”. Also, the fraction unbound in data set [1] (CD-1, mouse) turned out to be 0.25; in data set [1] (human) it was 0.244. For the same molecule, at LSD1, 10 µM produced 0% inhibition. Besides, in “Kinetic solubility”, the solubility amounted to 118 µg/mL (≈ 246 µM).

Regarding `COc1cc2c(NCC3CCN(C)CC3)cc(-c3ccc(C)o3)nc2cc1OCCCN1CCCC1` [CM-579, 6-methoxy-2-(5-methyl-2-furyl)-N-[(1-methyl-4-piperidyl)methyl]-7-(3-pyrrolidin-1-ylpropoxy)quinolin-4-amine], the GI50 in the data set with HCC95 came to 613 nM. For the same molecule, the fraction unbound in [1] (CD-1, mouse) came to 0.046; in data set [1] (human), 0.147. Further, at LSD1, 10 µM produced 24% inhibition. The molecule further yielded a solubility in the data set “Kinetic solubility” greater than 144 µg/mL. In addition, the IC50 at hERG potassium channels is greater than 100000 nM.
